What is called solubility is the dissolved amount per volume that the medium holds. High values mean much dissolved substance, low ones little dissolved substance.

A short description of data set [1]: Compound solubility in water. The format is physicochemical. Particulars: in water.
The target of data set [2] is T1, glucocerebrosidase (Gcase) (Homo sapiens, UniProt P04062).
T1 sequence (P04062 40-536): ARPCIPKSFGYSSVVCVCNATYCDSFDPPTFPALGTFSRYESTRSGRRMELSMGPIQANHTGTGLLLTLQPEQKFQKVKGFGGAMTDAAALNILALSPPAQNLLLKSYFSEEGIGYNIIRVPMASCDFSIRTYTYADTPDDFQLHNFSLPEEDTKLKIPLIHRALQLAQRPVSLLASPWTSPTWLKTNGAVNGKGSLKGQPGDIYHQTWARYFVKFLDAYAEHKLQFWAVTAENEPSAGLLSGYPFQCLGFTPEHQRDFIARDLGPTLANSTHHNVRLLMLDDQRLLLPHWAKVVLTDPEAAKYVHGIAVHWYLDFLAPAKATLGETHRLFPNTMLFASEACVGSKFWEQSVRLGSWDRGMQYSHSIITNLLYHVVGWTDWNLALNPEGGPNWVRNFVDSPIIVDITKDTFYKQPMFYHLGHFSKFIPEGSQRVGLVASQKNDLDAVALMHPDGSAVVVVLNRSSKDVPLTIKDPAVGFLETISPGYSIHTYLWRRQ
As to the kind of experiment: Glucocerebrosidase (Gcase) activation assay, 4-methylumbelliferyl-beta-D-glucopyranoside substrate, with saposin C. The format is biochemical. Particulars: for activation at 0.1 µM: test compound at 0.1 μM, read-out: Percent Gcase Activation, 0.1 μM Test Compound; for activation at 1 µM: test compound at 1.0 μM, read-out: Percent Gcase Activation, 1 μM Test Compound. The procedure, abridged: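 Compounds tested at 1.0 and 0.1 μM, then in 8-point 3-fold curves, were pre-incubated 30 min at room temperature with 10 nM GCase plus 100 nM saposin C in PS/triton micelles, pH 4.7. Reaction with substrate (2 mM in micelles before mixing) ran 15 min; stopped at pH 12.5, read at ex 365/em 440 nm.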

Converted amounts (≈) assume the structure as drawn.

Take `COc1cccc(-c2cc(C)n3cnc(C(=O)NC(C4CC4)C(F)(F)F)c3n2)c1C#N` (stereo not drawn) [IV-69]: the concentration in solution in data set [1] (solubility) came to 1.3 µg/mL (≈ 3.03 µM). Moreover, in data set [2], the activation at 0.1 µM is over 20% and the activation at 1 µM is over 60%.

In data set [1], `COc1ccc(-c2cc(C)n3cnc(C(=O)NC(C4CC4)C(F)(F)F)c3n2)cc1F` (stereo not drawn) [IV-70] showed a solubility of 1.5 µg/mL (≈ 3.55 µM). In data set [2], the activation at 0.1 µM was over 20% and the activation at 1 µM was over 60%.

In the case of `COc1ccc(F)cc1-c1cc(C)n2cnc(C(=O)NC(C3CC3)C(F)(F)F)c2n1` (stereo not drawn) [IV-71], the concentration in solution in data set [1] (solubility) was 1.5 µg/mL (≈ 3.55 µM). Further, in data set [2], the activation at 0.1 µM was over 20% and the activation at 1 µM is over 60%.

As for `Cc1cc(-c2ccc3ocnc3c2)nc2c(C(=O)NC(C3CC3)C(F)(F)F)ncn12` (stereo not drawn) [IV-72], the solubility in data set [1] amounted to 1.1 µg/mL (≈ 2.65 µM). In data set [2], the activation at 0.1 µM was over 20% and the activation at 1 µM is over 60%.

As to `Cc1cc(-c2ccc3ocnc3c2)nc2c(C(=O)NC(C)C(F)(F)F)ncn12` (stereo not drawn) [IV-73], the solubility in data set [1] amounted to 2.1 µg/mL (≈ 5.39 µM). For the same compound, in data set [2], the activation at 0.1 µM is over 20% and the activation at 1 µM was over 60%.

`Cc1cc(-n2ccc(Cl)n2)nc2c(C(=O)NC(C)C(F)(F)F)ncn12` (stereo not drawn) [IV-74] came in with a solubility in data set [1] of 4.2 µg/mL (≈ 11.3 µM). In data set [2], the activation at 0.1 µM is under 10% and the activation at 1 µM is 30 to 60%.

In data set [1], `Cc1cc(-c2ccc3c(c2)OCO3)nc2c(C(=O)NC(C3CC3)C(F)(F)F)ncn12` (stereo not drawn) [IV-75] yielded a solubility of 0.5 µg/mL (≈ 1.2 µM). Moreover, in data set [2], the activation at 0.1 µM is over 20% and the activation at 1 µM was over 60%.

With `Cc1cc(-c2ccc3c(c2)OCO3)nc2c(C(=O)NC(C)C(F)(F)F)ncn12` (stereo not drawn) [IV-76], in data set [1], the solubility is 1.2 µg/mL (≈ 3.06 µM). Besides, in data set [2], the activation at 0.1 µM was over 20% and the activation at 1 µM is over 60%.

Compound `Cc1cc(-c2ccc3c(c2)OCO3)nc2c(C(=O)N[C@H](C)C(F)(F)F)ncn12` [IV-77] showed a solubility in data set [1] of 1.3 µg/mL (≈ 3.31 µM). In data set [2], the activation at 0.1 µM is over 20% and the activation at 1 µM is over 60%.

In data set [1], `Cc1cc(-c2ccc3c(c2)OCO3)nc2c(C(=O)N[C@@H](C)C(F)(F)F)ncn12` [IV-78] had a solubility of 3.3 µg/mL (≈ 8.41 µM). In addition, in data set [2], the activation at 0.1 µM was over 20% and the activation at 1 µM was over 60%.

On to `Cc1cc(-c2cccc(-c3ncncn3)c2)nc2c(C(=O)NC(C3CC3)C(F)(F)F)ncn12` (stereo not drawn) [IV-79], for which the solubility in data set [1] turned out to be 0.5 µg/mL (≈ 1.1 µM). For the same compound, in data set [2], the activation at 0.1 µM was over 20% and the activation at 1 µM is over 60%.

Consider `Cc1cc(-c2ccc(F)cc2C#N)nc2c(C(=O)NC(C3CC3)C(F)(F)F)ncn12` (stereo not drawn) [IV-80], for which, in data set [1], the concentration in solution (solubility) came to 3.7 µg/mL (≈ 8.87 µM). Further, in data set [2], the activation at 0.1 µM is over 20% and the activation at 1 µM is over 60%.

On to `Cc1cc(-c2cc(C#N)co2)nc2c(C(=O)NC(C3CC3)C(F)(F)F)ncn12` (stereo not drawn) [IV-81], for which the concentration in solution in data set [1] (solubility) was 1 µg/mL (≈ 2.57 µM). Further, in data set [2], the activation at 0.1 µM lay in the range of 10 to 20% and the activation at 1 µM is over 60%.

In data set [1], `Cc1cc(-c2occc2C#N)nc2c(C(=O)NC(C3CC3)C(F)(F)F)ncn12` (stereo not drawn) [IV-82] showed a solubility of 1.9 µg/mL (≈ 4.88 µM). In data set [2], the activation at 0.1 µM is over 20% and the activation at 1 µM is over 60%.

`Cc1cc(-c2ccco2)nc2c(C(=O)NC(C3CC3)C(F)(F)F)ncn12` (stereo not drawn) [IV-83] registered a solubility in data set [1] of 1.2 µg/mL (≈ 3.29 µM). Also, in data set [2], the activation at 0.1 µM was over 20% and the activation at 1 µM is over 60%.

The compound `Cc1cc(-c2ccoc2)nc2c(C(=O)NC(C3CC3)C(F)(F)F)ncn12` (stereo not drawn) [IV-84] had a solubility in data set [1] of 3.2 µg/mL (≈ 8.78 µM). Also, in data set [2], the activation at 0.1 µM was over 20% and the activation at 1 µM is over 60%.

In data set [1], `Cc1cc(-c2cc(C#N)cs2)nc2c(C(=O)NC(C3CC3)C(F)(F)F)ncn12` (stereo not drawn) [IV-85] gave a solubility of 5.9 µg/mL (≈ 14.6 µM). In data set [2], the activation at 0.1 µM is over 20% and the activation at 1 µM is over 60%.

With `Cc1cc(-c2ccc(C#N)s2)nc2c(C(=O)NC(C3CC3)C(F)(F)F)ncn12` (stereo not drawn) [IV-86], the solubility in data set [1] turned out to be 3.6 µg/mL (≈ 8.88 µM). Besides, in data set [2], the activation at 0.1 µM was over 20% and the activation at 1 µM is over 60%.

With `Cc1cc(-c2csc(C#N)c2)nc2c(C(=O)NC(C3CC3)C(F)(F)F)ncn12` (stereo not drawn) [IV-87], in data set [1], the solubility was determined as 9.2 µg/mL (≈ 22.7 µM). In data set [2], the activation at 0.1 µM was over 20% and the activation at 1 µM was over 60%.

Compound `Cc1cc(-c2ccsc2C#N)nc2c(C(=O)NC(C3CC3)C(F)(F)F)ncn12` (stereo not drawn) [IV-88] yielded a solubility in data set [1] of 0.3 µg/mL (≈ 0.74 µM). Moreover, in data set [2], the activation at 0.1 µM is over 20% and the activation at 1 µM was over 60%.

In turn, `Cc1cc(N2CCCN(C(C)C)C2=O)nc2c(C(=O)NC(C3CC3)C(F)(F)F)ncn12` (stereo not drawn) [IV-89] came in with a solubility in data set [1] of 25.6 µg/mL (≈ 58.4 µM). Also, in data set [2], the activation at 0.1 µM was under 10% and the activation at 1 µM is under 30%.

Compound `CCc1cc(N2CCN(CC(F)(F)F)C2=O)nc2c(C(=O)NC(C3CC3)C(F)(F)F)ncn12` (stereo not drawn) [IV-90] gave a solubility in data set [1] of 25.6 µg/mL (≈ 53.5 µM). In data set [2], the activation at 0.1 µM fell in the range of 10 to 20% and the activation at 1 µM was over 60%.

In the case of `Cc1cc(C#N)c(-c2cc(C)n3cnc(C(=O)NC(C4CC4)C(F)(F)F)c3n2)o1` (stereo not drawn) [IV-92], the concentration in solution in data set [1] (solubility) came to 0.3 µg/mL (≈ 0.744 µM). Also, in data set [2], the activation at 0.1 µM was over 20% and the activation at 1 µM is over 60%.

Compound `Cc1sc(C#N)cc1-c1cc(C)n2cnc(C(=O)NC(C3CC3)C(F)(F)F)c2n1` (stereo not drawn) [IV-95] had a solubility in data set [1] of 2.5 µg/mL (≈ 5.96 µM). For the same compound, in data set [2], the activation at 0.1 µM was over 20% and the activation at 1 µM is over 60%.

Turning to `Cc1cc(C(=O)Nc2ccccc2)nc2c(C(=O)NC(C3CC3)C(F)(F)F)ncn12` (stereo not drawn) [IV-100], the solubility in data set [1] was 6.2 µg/mL (≈ 14.9 µM). In data set [2], the activation at 0.1 µM is under 10% and the activation at 1 µM is under 30%.

As to `Cc1cc(-c2cccc(OC(F)(F)F)n2)nc2c(C(=O)N[C@@H](C)C3CC3)ncn12` [IV-101], the solubility in data set [1] is 1.5 µg/mL (≈ 3.7 µM). Further, in data set [2], the activation at 0.1 µM was over 20% and the activation at 1 µM is over 60%.

`CCOc1cccc(-c2cc(C)n3cnc(C(=O)NC(C4CC4)C(F)(F)F)c3n2)n1` (stereo not drawn) [IV-102] gave a solubility in data set [1] of 7.8 µg/mL (≈ 18.6 µM). In data set [2], the activation at 0.1 µM is over 20% and the activation at 1 µM is over 60%.

`COc1ccc(F)c(-c2cc(C)n3cnc(C(=O)NC(C)(C)C)c3n2)c1` [IV-103]: in data set [1], the solubility stood at 0.7 µg/mL (≈ 1.96 µM). In addition, in data set [2], the activation at 0.1 µM lay within 10 to 20% and the activation at 1 µM was over 60%.

In data set [1], `COc1ccc(F)c(-c2cc(C)n3cnc(C(=O)NC(C)C(F)(F)F)c3n2)c1` (stereo not drawn) [IV-104] showed a solubility of 0.7 µg/mL (≈ 1.77 µM). For the same compound, in data set [2], the activation at 0.1 µM is over 20% and the activation at 1 µM was over 60%.

`CCc1cc(-c2ccns2)nc2c(C(=O)NC(C)(C)C)ncn12` [IV-105] yielded a solubility in data set [1] of 15.9 µg/mL (≈ 48.3 µM). In data set [2], the activation at 0.1 µM was in the range of 10 to 20% and the activation at 1 µM is over 60%.

`CCc1cc(-c2ccsn2)nc2c(C(=O)NC(C3CC3)C(F)(F)F)ncn12` (stereo not drawn) [IV-106] gave a solubility in data set [1] of 0.6 µg/mL (≈ 1.52 µM). Further, in data set [2], the activation at 0.1 µM was over 20% and the activation at 1 µM was over 60%.

Take `CCc1cc(N2CCC(C)(C)C2=O)nc2c(C(=O)NC(C3CC3)C(F)(F)F)ncn12` (stereo not drawn) [IV-107]: in data set [1], the concentration in solution (solubility) was 29.6 µg/mL (≈ 69.9 µM). In addition, in data set [2], the activation at 0.1 µM was in the range of 10 to 20% and the activation at 1 µM is over 60%.

On to `Cc1cc(-c2cc(F)ccc2C#N)nc2c(C(=O)NC(C3CC3)C(F)(F)F)ncn12` (stereo not drawn) [IV-108], for which the solubility in data set [1] turned out to be 0.7 µg/mL (≈ 1.68 µM). Further, in data set [2], the activation at 0.1 µM was over 20% and the activation at 1 µM was over 60%.

(Values after patent US9920061B2, “Imidazo[1,5-A]pyrimidinyl carboxamide compounds and their use in the treatment of medical disorders” (Lysosomal Therapeutics Inc., priority 2016, dated 2018).)
